Data: publication PMC11521309, “A novel 4-aminoquinoline chemotype with multistage antimalarial activity and lack of cross-resistance with PfCRT and PfMDR1 mutants” (PLOS Pathogens, 2024)
Where “and” joins values, the source holds several entries; their conditions need not be identical. Equal values may be shown once. Read-outs that look alike come from different tables or passages of the source.

Experiments:
[1] = test system: P. falciparum 3D7 ABS parasites; assay: ABS parasite survival assay, 72 h, flow cytometry; format: cell-based; conditions: Plasmodium falciparum
Method: (§1) P. falciparum ABS parasites were cultured at 3% hematocrit in human O^+ RBCs in RPMI-1640 media supplemented with 25 mM HEPES, 50 mg/L hypoxanthine, 2 mM L-glutamine, 0.21% sodium bicarbonate, 0.5% (w/v) AlbuMAXII (Invitrogen) and 10 μg/mL gentamycin. Culture flasks were kept in modular incubator chambers (Billups-Rothenberg) in a 5% O2, 5% CO2, and 90% N2 atmosphere at 37°C. Synchronized ring-stage parasites were obtained by two consecutive rounds of treatment with 5% D-sorbitol in 48-hour intervals. […] This was done by exposing cultures at 1% hematocrit and 0.3% parasitemia in 96-well plates in the presence of drugs in a two-fold 10 or 12-point serial dilution in duplicate along with drug-free controls. After a 72-hour incubation, parasite survival was assessed by flow cytometry on an iQue flow cytometer (Sartorius) using SYBR Green and MitoTracker Deep Red FM (Life Technologies) as nuclear stain and vital dye, respectively. Parasite survival was determined as a percentage relative to drug-free control. IC50 values were interpolated from log concentration versus response curves in Prism 9 (GraphPad Prism Software Inc.).

[2] = test system: P. falciparum Dd2 ABS parasites; assay: ABS parasite survival assay, 72 h, flow cytometry; format: cell-based; conditions: Plasmodium falciparum
Method: as §1

[3] = test system: P. berghei ookinete formation; assay: In vitro inhibition of ookinete formation (nLuc conversion assay), 24 h; format: cell-based, Plasmodium berghei; conditions: for % Inhibition of ookinete conversion: single assays
Method: To measure the inhibition of gamete conversion into ookinetes, a mutant luciferase-expressing P. berghei line (nLuc) was intraperitoneally injected into BALB/c mice. After 3–4 days, gametocyte-carrying blood samples were collected. In vitro compound testing was carried out by exposing 4 μL of infected blood mixed with 80 μL of culture medium (RPMI-1640 supplemented with 25 mM HEPES, 50 mg/L hypoxanthine, and 1% penicillin/streptomycin/neomycin at pH 8.3) to a range of drug concentrations for 24 hours at 21°C. Following the incubation, 20 μL of nLuc substrate (Nano-Glo Luciferase Assay System, Promega) was added to each well, and luminescence was measured in a luminometer. Increased light emission correlated with nLuc production and subsequent luciferase activity due to in vitro fertilization and ookinete conversion, as luciferase expression in this parasite line is regulated by the CTRP promoter that is ookinete-specific. Conversion inhibition was calculated as the percentage of luciferase activity of drug-exposed wells relative to untreated ones, from which IC50 values were interpolated.

[4] = test system: Hz formation in ABS P. falciparum 3D7 parasites; assay: Cellular heme fractionation assay; format: cell-based, Plasmodium falciparum
Method: A heme fractionation assay was used to measure the inhibition of Hz formation in cultured ABS P. falciparum 3D7 parasites as previously described. […] Late trophozoites were harvested after 32 hours of incubation by lysing RBCs with 0.05% saponin followed by multiple washes with 1 × PBS (pH 7.5) to remove any residual traces of hemoglobin. The parasite pellet was resuspended in PBS and the total number of trophozoites isolated was quantified using flow cytometry. Contents of the trophozoite pellet were released by hypotonic lysis and sonication. After centrifugation, treatments with HEPES buffer (pH 7.4), sodium dodecyl sulfate, pyridine, and NaOH, allowed us to separate the fractions corresponding to the different heme species of interest. A microplate reader was employed to measure the UV-visible spectrum of each heme fraction as a Fe(III)heme-pyridine complex. Fractions of undigested hemoglobin, “free” heme, and Hz were quantified using a heme standard curve based on the mass of each heme-Fe species per mature trophozoite (fg/cell), obtained by dividing the total amount of each heme species by the corresponding number of parasites in that fraction as determined by flow cytometry. Statistical comparisons and analyses for trends employed Students’ t-tests (GraphPad Prism version 9).

[5] = 0.5x IC50, 32 h, single replicates
[6] = 0.5–3.0 × IC50 vs untreated control
[7] = 1x IC50, 32 h, single replicates
[8] = 2x IC50, 32 h, single replicates
[9] = 2.5x IC50, 32 h, single replicates
[10] = 3x IC50, 32 h, single replicates

COc1cc2nccc(Nc3cccc(Oc4ccccc4)c3)c2cc1OC [LDT-623]
IC50 ([1]; 3D7, ABS parasites, N = 3, read-out: IC50 3D7): 130 ± 10 nM
IC50 ([1]; 3D7, CQ-sensitive strain, read-out: IC50 3D7): 127 nM
IC50 ([1]; 3D7, read-out: IC50 3D7): 126.6 ± 0.1 nM
IC50 ([2]; DD2, ABS parasites, N = 3, read-out: IC50 Dd2): 300 ± 30 nM
IC50 ([2]; DD2, CQ-resistant strain, read-out: IC50 Dd2): 365 nM
IC50 ([2]; DD2, read-out: IC50 Dd2): 365 ± 17.5 nM
% Inhibition of ookinete conversion ([3]; Log conc. (uM) 0.39794): 72.78% and 76.99% and 75.53% and 88.24% and 87.02% and 67.23% and 81.09%
% Inhibition of ookinete conversion ([3]; Log conc. (uM) 0.69897): 88.00% and 95.67% and 86.70% and 98.41% and 98.02% and 73.84% and 94.25%
% Inhibition of ookinete conversion ([3]; Log conc. (uM) 1): 99.93% and 99.92% and 99.83% and 99.70% and 99.35% and 98.41% and 99.32%
% Inhibition of ookinete conversion ([3]; Log conc. (uM) -1.70927): 0.00%
IC50 ([3]; Plasmodium berghei, read-out: IC50 inhibition of ookinete formation, mean, N = 7): 1500 nM
%Hb ([4]; 0.5x IC50, 32 h, Mean): 6.49%
%Heme ([4]; 0.5x IC50, 32 h, Mean): 9.94%
%Hemozoin ([4]; 0.5x IC50, 32 h, Mean): 83.57%
Hb Fe (fg/troph) ([4]; 0.5x IC50, 32 h, Mean): 3.40 fg/troph
Heme Fe (fg/troph) ([4]; 0.5x IC50, 32 h, Mean): 5.28 fg/troph
Hemozoin Fe (fg/troph) ([4]; 0.5x IC50, 32 h, Mean): 44.40 fg/troph
Total Fe (fg/troph) ([4]; 0.5x IC50, 32 h, Mean): 54.33 fg/troph
%Hb [4, 5]: 5.0225% and 6.9078% and 7.3751% and 6.6526%
%Heme [4, 5]: 10.3876% and 10.3966% and 9.0005% and 9.9788%
%Hemozoin [4, 5]: 84.5899% and 82.6957% and 83.6245% and 83.3686%
Hb Fe (fg/troph) [4, 5]: 2.7844 fg/troph and 3.6098 fg/troph and 3.8007 fg/troph and 3.8647 fg/troph
Heme Fe (fg/troph) [4, 5]: 5.7588 fg/troph and 5.4329 fg/troph and 4.6383 fg/troph and 5.7970 fg/troph
Hemozoin Fe (fg/troph) [4, 5]: 46.8963 fg/troph and 43.2142 fg/troph and 43.0950 fg/troph and 48.4315 fg/troph
Total Fe (fg/troph) [4, 5]: 55.44 fg/troph and 52.26 fg/troph and 51.53 fg/troph and 58.09 fg/troph
effect on Hz levels [4, 6]: significant concentration-dependent decreases in the levels of Hz
effect on undigested Hb [4, 6]: augmented percentage of undigested Hb was observed starting at 0.5 × IC50
effect on “free” heme [4, 6]: statistically significant increase in “free” heme in a concentration-dependent manner
%Hb ([4]; 1x IC50, 32 h, Mean): 7.02%
%Heme ([4]; 1x IC50, 32 h, Mean): 10.55%
%Hemozoin ([4]; 1x IC50, 32 h, Mean): 82.43%
Hb Fe (fg/troph) ([4]; 1x IC50, 32 h, Mean): 3.49 fg/troph
Heme Fe (fg/troph) ([4]; 1x IC50, 32 h, Mean): 5.57 fg/troph
Hemozoin Fe (fg/troph) ([4]; 1x IC50, 32 h, Mean): 44.22 fg/troph
Total Fe (fg/troph) ([4]; 1x IC50, 32 h, Mean): 54.30 fg/troph
%Hb [4, 7]: 4.1032% and 6.0183% and 9.3168% and 8.6327%
%Heme [4, 7]: 11.3186% and 11.3158% and 8.7646% and 10.7959%
%Hemozoin [4, 7]: 84.5783% and 82.6659% and 81.9186% and 80.5714%
Hb Fe (fg/troph) [4, 7]: 2.0348 fg/troph and 3.3626 fg/troph and 5.0638 fg/troph and 4.9539 fg/troph
Heme Fe (fg/troph) [4, 7]: 5.6130 fg/troph and 6.3225 fg/troph and 4.7637 fg/troph and 6.1953 fg/troph
Hemozoin Fe (fg/troph) [4, 7]: 41.9435 fg/troph and 46.1884 fg/troph and 44.5239 fg/troph and 46.2360 fg/troph
Total Fe (fg/troph) [4, 7]: 49.59 fg/troph and 55.87 fg/troph and 54.35 fg/troph and 57.39 fg/troph
%Hb ([4]; 2x IC50, 32 h, Mean): 5.86%
%Heme ([4]; 2x IC50, 32 h, Mean): 12.64%
%Hemozoin ([4]; 2x IC50, 32 h, Mean): 81.50%
Hb Fe (fg/troph) ([4]; 2x IC50, 32 h, Mean): 3.50 fg/troph
Heme Fe (fg/troph) ([4]; 2x IC50, 32 h, Mean): 6.66 fg/troph
Hemozoin Fe (fg/troph) ([4]; 2x IC50, 32 h, Mean): 43.79 fg/troph
Total Fe (fg/troph) ([4]; 2x IC50, 32 h, Mean): 54.83 fg/troph
%Hb [4, 8]: 4.9454% and 8.0340% and 6.4023% and 4.0696%
%Heme [4, 8]: 13.6029% and 11.9660% and 11.4824% and 13.5021%
%Hemozoin [4, 8]: 81.4516% and 80.0000% and 82.1153% and 82.4284%
Hb Fe (fg/troph) [4, 8]: 2.6441 fg/troph and 4.5716 fg/troph and 3.2970 fg/troph and 2.3379 fg/troph
Heme Fe (fg/troph) [4, 8]: 7.2727 fg/troph and 6.8090 fg/troph and 5.9132 fg/troph and 7.7566 fg/troph
Hemozoin Fe (fg/troph) [4, 8]: 43.5476 fg/troph and 45.5226 fg/troph and 42.2872 fg/troph and 47.3530 fg/troph
Total Fe (fg/troph) [4, 8]: 53.46 fg/troph and 56.90 fg/troph and 51.50 fg/troph and 57.45 fg/troph
%Hb ([4]; 2.5x IC50, 32 h, Mean): 6.89%
%Heme ([4]; 2.5x IC50, 32 h, Mean): 13.61%
%Hemozoin ([4]; 2.5x IC50, 32 h, Mean): 79.50%
Hb Fe (fg/troph) ([4]; 2.5x IC50, 32 h, Mean): 3.48 fg/troph
Heme Fe (fg/troph) ([4]; 2.5x IC50, 32 h, Mean): 7.40 fg/troph
Hemozoin Fe (fg/troph) ([4]; 2.5x IC50, 32 h, Mean): 43.37 fg/troph
Total Fe (fg/troph) ([4]; 2.5x IC50, 32 h, Mean): 54.23 fg/troph
%Hb [4, 9]: 6.2660% and 6.4635% and 6.5388% and 8.2899%
%Heme [4, 9]: 15.0745% and 13.6837% and 12.1024% and 13.5701%
%Hemozoin [4, 9]: 78.6596% and 79.8529% and 81.3587% and 78.1400%
Hb Fe (fg/troph) [4, 9]: 3.4040 fg/troph and 3.6534 fg/troph and 3.3950 fg/troph and 4.4889 fg/troph
Heme Fe (fg/troph) [4, 9]: 8.1894 fg/troph and 7.7345 fg/troph and 6.2837 fg/troph and 7.3481 fg/troph
Hemozoin Fe (fg/troph) [4, 9]: 42.7326 fg/troph and 45.1360 fg/troph and 42.2421 fg/troph and 42.3122 fg/troph
Total Fe (fg/troph) [4, 9]: 54.33 fg/troph and 56.52 fg/troph and 51.92 fg/troph and 54.15 fg/troph
%Hb ([4]; 3x IC50, 32 h, Mean): 8.06%
%Heme ([4]; 3x IC50, 32 h, Mean): 18.59%
%Hemozoin ([4]; 3x IC50, 32 h, Mean): 73.35%
Hb Fe (fg/troph) ([4]; 3x IC50, 32 h, Mean): 4.13 fg/troph
Heme Fe (fg/troph) ([4]; 3x IC50, 32 h, Mean): 9.47 fg/troph
Hemozoin Fe (fg/troph) ([4]; 3x IC50, 32 h, Mean): 38.59 fg/troph
Total Fe (fg/troph) ([4]; 3x IC50, 32 h, Mean): 52.57 fg/troph
%Hb [4, 10]: 7.5148% and 8.7626% and 7.4537% and 8.4952%
%Heme [4, 10]: 20.9692% and 17.6208% and 15.9272% and 19.8532%
%Hemozoin [4, 10]: 71.5161% and 73.6166% and 76.6190% and 71.6515%
Hb Fe (fg/troph) [4, 10]: 3.8296 fg/troph and 4.6352 fg/troph and 3.9291 fg/troph and 4.5643 fg/troph
Heme Fe (fg/troph) [4, 10]: 10.6861 fg/troph and 9.3209 fg/troph and 8.3957 fg/troph and 10.6667 fg/troph
Hemozoin Fe (fg/troph) [4, 10]: 36.4452 fg/troph and 38.9409 fg/troph and 40.3879 fg/troph and 38.4969 fg/troph
Total Fe (fg/troph) [4, 10]: 50.96 fg/troph and 52.90 fg/troph and 52.71 fg/troph and 53.73 fg/troph
